{"source": "a melting point compilation (Tetko et al.; mined from patent text by program, amines drawn as free bases though some values may be those of a salt)"}
{"units": {"melting point": "°C"}}
{"smiles": "Cc1c(C)c2c(c(C)c1NC(=O)CC(C)(C)C)C(O)(c1ccccn1)C(C)(C)O2", "note": "(configuration not stated)", "melting point": "205 to 207"}
{"smiles": "CCC(OC(=O)C1CC1)c1ccc(Cl)c2nc3n(c12)CCCN3c1ccc(Cl)cc1Cl", "note": "(configuration not stated)", "melting point": "159 to 161"}
{"smiles": "CCCCCCCOc1c(OC)cc([N+](=O)[O-])c2nccc(C)c12", "melting point": "52 to 55"}
{"smiles": "Cc1coc(NC(=S)Nc2ccc(Cl)cc2C)n1", "melting point": 214}
{"smiles": "C[C@@H](n1cnc2cc(-c3ccc(Cl)cc3)sc2c1=O)[C@](O)(Cn1cncn1)c1ccc(Cl)cc1Cl", "melting point": "132 to 136"}
{"smiles": "CCn1c(-c2ccc(OC)c(OC)c2)cc(=O)n(C)c1=O", "melting point": "110 to 120"}
{"smiles": "CCc1nc(-c2ncn3c4ccc(Cl)cc4c(=O)n(C)c23)no1", "melting point": "196 to 198"}
{"smiles": "N#CC(OC1CCCCO1)c1ccc(Cl)c(Cl)c1", "note": "(configuration not stated)", "melting point": 61}
{"smiles": "O=C(O)COc1ccc(Cl)c2c(=O)c3ccccc3sc12", "melting point": "230 to 232"}
{"smiles": "O=C(O)Cc1c(C(=O)O)c2cc(Oc3cccc(OC(F)(F)F)c3)ccc2n1-c1ccc(OC(F)(F)F)cc1", "melting point": "188 to 193"}
{"smiles": "CC1COC2(CCN(C(=O)C(Cl)Cl)CC2)O1", "note": "(configuration not stated)", "melting point": 115}
{"smiles": "Nc1ccc(-c2cnc3[nH]c(=O)n(CC4CCOCC4)c3n2)cn1", "melting point": "> 260"}
{"smiles": "CC(C)(C)OCC1CN(c2ccc3ccccc3c2)C(=O)O1", "note": "(configuration not stated)", "melting point": "112 to 113"}
{"smiles": "CS(=O)(=O)c1ccc(C(=O)c2cc(-c3ccc(Cl)cc3)c(N3CCOCC3)s2)cc1", "melting point": "242 to 243"}
{"smiles": "O=C(CCCC1(c2ccccc2)CC(O)=C(SCc2ccccc2)C(=O)O1)NCc1ccccc1", "note": "(configuration not stated)", "melting point": "48 to 52"}
{"smiles": "CC(C)c1ccc2nc3ccc(C(=O)OCCCCc4cccnc4)cn3c(=O)c2c1", "melting point": "95 to 96"}
{"smiles": "N#Cc1ccc([C@H]2CC[C@H](C=O)CC2)cc1", "melting point": 57.1}
{"smiles": "O=S(=O)(NCCO)c1ccc(-c2ccc(S(=O)(=O)NCCO)cc2)cc1", "melting point": "203 to 206"}
{"smiles": "NS(=O)(=O)c1ccc(-c2noc(-c3cnn4c(C(F)(F)F)cc(-c5ccc(C(F)(F)F)cc5)nc34)n2)cc1", "melting point": 275}
{"smiles": "CCCn1c(=O)c2c(nc(C=Cc3ccc(C(=O)O)cc3)n2C)n(CCC)c1=O", "melting point": "215 to 217"}
{"smiles": "OC(CCN1CC=C(c2ccccc2)CC1)c1cccc2ccccc12", "note": "(configuration not stated)", "melting point": "93 to 94"}
{"smiles": "Cc1ccc2c(c1)nc(C)c(=O)n2-c1ccc(Cl)cc1", "melting point": "223 to 225"}
{"smiles": "CSC1=Nc2ccccc2Sc2nccn21", "melting point": "116 to 118"}
{"smiles": "CC(C)(C)c1ccc(CCC(O)CCC2CCCCCC2)cc1NC(=O)CC1c2ccccc2Oc2ccccc21", "note": "(configuration not stated)", "melting point": "146 to 147"}
{"smiles": "CC(C)Cn1nc(-c2ccc(O)cc2O)c2cccc(C(F)(F)F)c21", "melting point": "91 to 92"}
{"smiles": "O=C(CCNc1c(C(=O)O)[nH]c2cc(Cl)cc(Cl)c12)c1cccc(F)c1", "melting point": "270 to 280"}
{"smiles": "CC(=O)c1cc2c(s1)S(=O)CCN(CCCCN1CCN(c3ncccn3)CC1)C2=O", "note": "(configuration not stated)", "melting point": "103 to 106"}
{"smiles": "CCn1c2ccccc2c2c(N)c(C(=O)OC)c(C)nc21", "melting point": "108 to 110"}
{"smiles": "CCN1c2c(oc(=O)n(-c3ccccn3)c2=O)-c2ccccc2S1(=O)=O", "melting point": "268 to 270"}
{"smiles": "CCc1nc(N)nc(N)c1-c1cccc(Cl)c1Cl", "melting point": "228 to 230"}
{"smiles": "CC1(C)C(c2ccc(S(C)(=O)=O)cc2)=C(c2ccccc2)C1O", "note": "(configuration not stated)", "melting point": "79 to 81"}
{"smiles": "Nc1noc(-c2cc3c(Oc4ccc(Cl)cc4)cncc3s2)n1", "melting point": "217 to 219"}
{"smiles": "O=C(NCCSc1ccccn1)Nc1cc(N2CC(c3ccccc3)OC2=O)ccn1", "note": "(configuration not stated)", "melting point": "209 to 211"}
{"smiles": "COc1ccccc1CN(CC(=O)OC(C)(C)C)S(=O)(=O)c1ccc2c(Cl)cnc(Cl)c2c1", "melting point": "106 to 108"}
{"smiles": "COc1cc(Nc2nccc(-c3sc(NCCc4ccccc4)nc3C)n2)cc(OC)c1OC", "melting point": "184 to 186"}
{"smiles": "Clc1ncc(-c2nc(Cl)nc(Cl)c2Br)c(Cl)n1", "melting point": "136 to 138"}
{"smiles": "Cc1cc(-c2c(-c3ccc(F)cc3)ncn2CC2CC2)ccn1", "melting point": "141 to 142"}
{"smiles": "CCOc1ccc(C(=O)NCc2ccc3c(c2)CN(C2CCC(=O)NC2=O)C3=O)cc1", "note": "(configuration not stated)", "melting point": "269 to 271"}
{"smiles": "CC(C)n1nc(-c2sc(Nc3ccccn3)nc2-c2ccccc2)ccc1=O", "melting point": "194 to 195"}
{"smiles": "Cc1oc2ccccc2c1C(=O)N(Cc1ccccc1)Cc1ccc2c(Br)c(OCC#N)ccc2c1", "melting point": "145 to 146"}
{"smiles": "CC(C)(OCc1nn(C2CCCc3ccccc32)c2ccccc12)C(=O)O", "note": "(configuration not stated)", "melting point": "132 to 134"}
{"smiles": "Cc1cc(C)cc(Nc2ccc(Nc3ccccc3)c3c2C(=O)c2ccccc2C3=O)c1", "melting point": 220}
{"smiles": "Cc1ccc(OC2SCC(O)C(O)C2O)c(F)n1", "note": "(configuration not stated)", "melting point": "167 to 170"}
{"smiles": "CNC(=O)/C(=N/OC)c1ccccc1COc1ccc(C(F)(F)F)c(NC)n1", "melting point": "66 to 67"}
{"smiles": "COc1ccc2c(c1)C(NC(=NC#N)SC)CCC2", "note": "(configuration not stated)", "melting point": "131 to 132"}
{"smiles": "O=C(c1cc(=O)c2cc(O)ccc2[nH]1)N1CCC(O)(Cc2ccccc2)CC1", "melting point": 178}
{"smiles": "Cc1c(Cl)sc2[nH]c(=O)c(-c3ccccc3)c(O)c12", "melting point": "105 to 107"}
{"smiles": "COc1ccc2c(c1OS(=O)(=O)C(F)(F)F)COCc1cc(OC)c(OC)c(OC)c1-2", "melting point": 164}
{"smiles": "O=C(O)C1=Cc2cc(C(=O)Cc3ccccc3)ccc2OC1C(F)(F)F", "note": "(configuration not stated)", "melting point": "159 to 164"}
{"smiles": "CC(=O)CN1CCc2c(c(=O)oc3cc(C)c(C)cc23)C1", "melting point": "136 to 138"}
{"smiles": "COC(=O)c1oc(C(C)(C)C)cc1NC(=O)Nc1cccc(Cl)c1Cl", "melting point": "195 to 197"}
{"smiles": "CC(Cl)C(=O)NOCc1ccccc1", "note": "(configuration not stated)", "melting point": "70.1 to 72.8"}
{"smiles": "Cc1cc(SC(C)C)c(NC(=O)CCCCCSc2nc3ccccc3s2)c(SC(C)C)n1", "melting point": "84 to 86"}
{"smiles": "O=S(c1[nH]c(-c2ccc(Cl)cc2)c(S(=O)(=O)C(F)(F)F)c1Br)C(F)(F)F", "note": "(configuration not stated)", "melting point": "120 to 170"}
{"smiles": "CCN(CC)C(=O)c1cc2c(cn1)[nH]c1ccccc12", "melting point": 170}
{"smiles": "COc1ccc(C(=O)Nc2ccc(Cl)c(Cl)c2)cc1NC(=S)Nc1ccc(S(N)(=O)=O)cc1", "melting point": "190 to 193"}
{"smiles": "NC(=O)NCc1cc2c(Oc3ccc(Cl)cc3)cncc2s1", "melting point": "202 to 204"}
{"smiles": "Nc1ncnc2c1c(-c1ccc(Oc3ccccc3)cc1)cn2C1CCC2(CC1)OCCO2", "melting point": "193 to 194"}
{"smiles": "O=c1[nH]c2ccsc2c(=O)n1CCN1CCN(c2ccccc2)CC1", "melting point": "215 to 217"}
{"smiles": "O=C(COc1cc(Cl)c(Cl)cc1Cl)OCNC(=O)Oc1ccccc1Cl", "melting point": 119}
{"smiles": "COc1ccc2c(c1)C(=O)N(c1ccc3c(c1)NCCN3)C2", "melting point": "159 to 163"}
{"smiles": "CC(C)c1cc(C(=O)Nc2ccc(C(=O)O)cc2)[nH]c1C(C)C", "melting point": 230}
{"smiles": "CCCc1cc2cc(OCC(=O)OCC)c(Cl)c(Cl)c2s1", "melting point": "62 to 63"}
{"smiles": "COc1ccc(C(=O)c2ccc(Br)cc2)c(F)c1", "melting point": "125 to 126"}
{"smiles": "Cc1oc(-c2ccccc2)nc1CCC(=O)O", "melting point": "124 to 125"}
{"smiles": "CCOC(=O)C[C@@H]1C(=O)N(S(=O)(=O)c2ccc(OC)cc2)C=C[C@@H]1c1ccco1", "melting point": "98 to 100"}
{"smiles": "N#Cc1ccc(-c2nc(-c3ccc(F)cc3)c(-c3ccnc4ccccc34)[nH]2)cc1", "melting point": "294 to 295"}
{"smiles": "Cc1cc(-c2cc(C(F)F)n3ncc(C(=O)Nc4cccc(S(=O)(=O)N5CCN(C)CC5)c4)c3n2)ccc1C(F)(F)F", "melting point": 198}
{"smiles": "Cc1ccc(N)cc1Nc1nccc(-c2cncc(Br)c2)n1", "melting point": 130}
{"smiles": "NS(=O)(=O)OCCc1ccccn1", "melting point": "89 to 91"}
{"smiles": "Cc1[nH]c(-c2ccccc2)c(NC(=O)CN2C(=O)c3ccccc3C2=O)c1C(=O)c1ccccc1", "melting point": "288 to 290"}
{"smiles": "CCOc1cc2cc(C(=O)N3CC(CCl)c4c3cc(N3C(=O)c5ccccc5C3=O)c3ncccc43)[nH]c2c(OCC)c1OCC", "note": "(configuration not stated)", "melting point": "189 to 191"}
{"smiles": "CCON=C(C(=O)O)c1csc(NC(c2ccccc2)(c2ccccc2)c2ccccc2)n1", "melting point": 200}
{"smiles": "CC(=O)Nc1cc2c(cc1[N+](=O)[O-])OC(C)(C)[C@@H](O)[C@@H]2N", "note": "(relative stereo)", "melting point": "258 to 261"}
{"smiles": "Nc1nc2c(ncn2COCCCO)c(=O)[nH]1", "melting point": 223}
{"smiles": "CC(C)(C)NS(=O)(=O)c1cccc(NC(=O)c2cnn3c(C4CC4)cc(-c4ccc(Cl)cc4)nc23)c1", "melting point": "238 to 239"}
{"smiles": "Cc1nnc(OCC(F)(F)F)c(-c2c(F)cc(F)cc2F)c1-c1ccc(Cl)cc1", "melting point": "105 to 108"}
{"smiles": "N#Cc1cccc2[nH]ccc12", "melting point": "115 to 116"}
{"smiles": "CC(=O)Nc1cccc2c1S(=O)(=O)C(C)C2", "note": "(configuration not stated)", "melting point": "115 to 117"}
{"smiles": "COC(=O)c1cc(C#N)cc2c1OC(c1ccccc1)(c1ccccc1)O2", "melting point": 141}
{"smiles": "CNC(C)CCC1(C(N)=O)c2ccccc2-c2ccccc21", "note": "(configuration not stated)", "melting point": "178 to 180"}
{"smiles": "O=C(CC1CCCCC1)Nc1ccc2oc3c(c2c1)CCCC3", "melting point": "189 to 191"}
{"smiles": "N#CCCC(CCC#N)(CCC#N)[N+](=O)[O-]", "melting point": 114}
{"smiles": "Cc1c(Nc2c(C#N)cncc2-c2cc3cc(CN4CCN(C)CC4)ccc3o2)ccc2[nH]ccc12", "melting point": "162 to 165"}
{"smiles": "COCCN1CCSc2ccc(Nc3ncc(Cl)c(N[C@@H]4CCCC[C@H]4NS(C)(=O)=O)n3)cc2C1", "melting point": "140 to 143"}
{"smiles": "O=C1Nc2ccccc2N(C(=O)N2CCOC(CCN3CCCCC3)C2)c2ncccc21", "note": "(configuration not stated)", "melting point": "136 to 138"}
{"smiles": "O=C(O)CCc1cccc(-c2nc(=O)c3ccc(F)cc3s2)n1", "melting point": "215 to 217"}
{"smiles": "Oc1ccc(OCc2ccccc2)cc1F", "melting point": 67}
{"smiles": "N#CNC(=NCC(O)c1cccc(O)c1)NCCSCc1csc(NC(=N)N)n1", "note": "(configuration not stated)", "melting point": "162 to 164"}
{"smiles": "CCCCCCc1cc2c(s1)NC(=O)CN=C2c1ccccc1C", "melting point": "162 to 163"}
{"smiles": "CC(=O)CCC(=O)N(C)c1nnc(-c2cccnc2)s1", "melting point": "146 to 147"}
{"smiles": "Cc1cc(=O)n(-c2cc3c(cc2F)OC(CC#N)C(=O)N3)c(=O)[nH]1", "note": "(configuration not stated)", "melting point": "> 230"}
{"smiles": "Nc1nccc(Oc2ccc3c(C(=O)O)cccc3c2)n1", "melting point": 205}
{"smiles": "O=C(O)CCCn1c(-c2ccc3c(c2)OCO3)nc2ccccc21", "melting point": "177 to 180"}
{"smiles": "O=C1N(Cc2ccc3c(c2)OCCO3)c2ccccc2C12COc1cc3c(cc12)CCO3", "note": "(configuration not stated)", "melting point": "173 to 175"}
{"smiles": "CCOC(=O)NNC(C)=S", "melting point": "54 to 57.5"}
{"smiles": "COc1cc2ccc(-c3cc(OCc4ccccc4)c(OC)cc3[N+](=O)[O-])cc2cc1OC", "melting point": "151 to 153"}
